Experimental data: ChEMBL document CHEMBL5576060, “Discovery of acetophenone/piperazin-2-one hybrids as selective anti-TNBC cancer agents by causing DNA damage” (Bioorg Med Chem Lett, 2024)
Activity calls are given as the source filed them. The calls are words filed in the database; no cut-off is given here.

Assays:
JIMT-1 [1] = assay: Effect on HSP70 expression in human JIMT- 1 cells at 20 uM measured for 48 hrs by immunoblot analysis; assay type: functional, cell-based
MDA-MB-468 [2] = assay: Effect on HSP90 level in human MDA-MB-468 cells upto 20 uM; assay type: functional, cell-based
MDA-MB-468 [3] = assay: Induction of cell cycle arrest in human MDA-MB-468 cells assessed as accumulation of cells at S phase at 10 uM measured for 48 hrs by PI staining based flow cytometry analysis (reference value: 4.39%); assay type: functional
MCF7 [4] = assay: Effect on HSP70 expression in human MCF7 cells at 20 uM measured for 48 hrs by immunoblot analysis; assay type: functional, cell-based
MCF-10A [5] = assay: Effect on P53 expression in human MCF-10A cells at 20 uM measured for 48 hrs by immunoblot analysis; assay type: functional, cell-based
MCF7 [6] = assay: Effect on P53 expression in human MCF7 cells at 20 uM measured for 48 hrs by immunoblot analysis; assay type: functional, cell-based
JIMT-1 [7] = assay: Effect on P53 expression in human JIMT- 1 cells at 20 uM measured for 48 hrs by immunoblot analysis; assay type: functional, cell-based
SK-BR-3 [8] = assay: Antiproliferative activity against human SK-BR-3 cells assessed as inhibition of cell growth; assay type: functional, cell-based
MDA-MB-468 [9] = assay: Antiproliferative activity against human MDA-MB-468 cells assessed as inhibition of cell growth; assay type: functional, cell-based
JIMT-1 [10] = assay: Effect on gammaH2AX expression in human JIMT- 1 cells at 20 uM measured for 48 hrs by immunoblot analysis; assay type: functional, cell-based
MDA-MB-468 [11] = assay: Potency index, ratio of cisplatin IC50 to test compound IC50 for antiproliferative activity against human MDA-MB-468 cells assessed as inhibition of cell growth; assay type: functional
[12] = Selectivity index, ratio of IC50 for antiproliferative activity against human BT-474 cells assessed as inhibition of cell growth to IC50 for antiproliferative activity against human MDA-MB-468 cells assessed as inhibition of cell growth; assay type: functional
MDA-MB-468 [13] = assay: Effect on HSF-1 level in human MDA-MB-468 cells upto 20 uM; assay type: functional, cell-based
SK-BR-3 [14] = assay: Effect on gamma H2AX expression in human SK-BR-3 cells at 20 uM measured for 48 hrs by immunoblot analysis; assay type: functional, cell-based
MCF7 [15] = assay: Antiproliferative activity against human MCF7 cells assessed as inhibition of cell growth; assay type: functional, cell-based
MCF7 [16] = assay: Effect on gammaH2AX expression in human MCF7 cells at 20 uM measured for 48 hrs by immunoblot analysis; assay type: functional, cell-based
MCF-10A [17] = assay: Effect on P38 expression in human MCF-10A cells at 20 uM measured for 48 hrs by immunoblot analysis; assay type: functional, cell-based
BT-474 [18] = assay: Effect on P38 expression in human BT-474 cells at 20 uM measured for 48 hrs by immunoblot analysis; assay type: functional, cell-based
MDA-MB-468 [19] = assay: Induction of DNA damage in human MDA-MB-468 cells assessed as increase in accumulation of gammaH2AX level; assay type: functional, cell-based; conditions: dose <= 20.0 µM
MDA-MB-468 [20] = assay: Induction of cell cycle arrest in human MDA-MB-468 cells assessed as accumulation of cells at G1 phase at 10 uM measured for 48 hrs by PI staining based flow cytometry analysis (reference value: 80.8%); assay type: functional
BT-474 [21] = assay: Effect on gammaH2AX expression in human BT-474 cells at 20 uM measured for 48 hrs by immunoblot analysis; assay type: functional, cell-based
SK-BR-3 [22] = assay: Effect on P53 expression in human SK-BR-3 cells at 20 uM measured for 48 hrs by immunoblot analysis; assay type: functional, cell-based
MDA-MB-468 [23] = assay: Induction of DNA damage in human MDA-MB-468 cells assessed as increase in p53 expression; assay type: functional, cell-based; conditions: dose <= 20.0 µM
MCF7 [24] = assay: Effect on P38 expression in human MCF7 cells at 20 uM measured for 48 hrs by immunoblot analysis; assay type: functional, cell-based
MDA-MB-468 [25] = assay: Induction of cell cycle arrest in human MDA-MB-468 cells assessed as accumulation of cells at G1 phase at 20 uM measured for 48 hrs by PI staining based flow cytometry analysis (reference value: 80.8%); assay type: functional
JIMT-1 [26] = assay: Antiproliferative activity against human JIMT-1 cells assessed as inhibition of cell growth; assay type: functional, cell-based
MDA-MB-468 [27] = assay: Induction of cell cycle arrest in human MDA-MB-468 cells assessed as accumulation of cells at G2 phase at 5 uM measured for 48 hrs by PI staining based flow cytometry analysis (reference value: 16.4%); assay type: functional
MDA-MB-468 [28] = assay: Induction of cell cycle arrest in human MDA-MB-468 cells assessed as accumulation of cells at S phase at 5 uM measured for 48 hrs by PI staining based flow cytometry analysis (reference value: 4.39%); assay type: functional
MDA-MB-468 [29] = assay: Induction of cell cycle arrest in human MDA-MB-468 cells assessed as accumulation of cells at G2 phase at 20 uM measured for 48 hrs by PI staining based flow cytometry analysis (reference value: 16.4%); assay type: functional
MCF-10A [30] = assay: Effect on HSP70 expression in human MCF-10A cells at 20 uM measured for 48 hrs by immunoblot analysis; assay type: functional, cell-based
BT-474 [31] = assay: Antiproliferative activity against human BT-474 cells assessed as inhibition of cell growth; assay type: functional, cell-based
MDA-MB-468 [32] = assay: Induction of cell cycle arrest in human MDA-MB-468 cells assessed as accumulation of cells at G2 phase at 10 uM measured for 48 hrs by PI staining based flow cytometry analysis (reference value: 16.4%); assay type: functional
MDA-MB-468 [33] = assay: Antiproliferative activity against human MDA-MB-468 cells assessed as inhibition of cell growth at 10 uM incubated for 72 hrs; assay type: functional
MDA-MB-468 [34] = assay: Induction of cell cycle arrest in human MDA-MB-468 cells assessed as accumulation of cells at G1 phase at 5 uM measured for 48 hrs by PI staining based flow cytometry analysis (reference value: 80.8%); assay type: functional
[35] = Antiproliferative activity against human MCF-10A cells assessed as inhibition of cell growth; assay type: toxicity, cell-based
BT-474 [36] = assay: Effect on HSP70 expression in human BT-474 cells at 20 uM measured for 48 hrs by immunoblot analysis; assay type: functional, cell-based
SK-BR-3 [37] = assay: Effect on P38 expression in human SK-BR-3 cells at 20 uM measured for 48 hrs by immunoblot analysis; assay type: functional, cell-based
JIMT-1 [38] = assay: Effect on P38 expression in human JIMT- 1 cells at 20 uM measured for 48 hrs by immunoblot analysis; assay type: functional, cell-based
MDA-MB-468 [39] = assay: Downregulation of HSP70 expression in human MDA-MB-468 cells upto 20 uM; assay type: functional, cell-based
SK-BR-3 [40] = assay: Effect on HSP70 expression in human SK-BR-3 cells at 20 uM measured for 48 hrs by immunoblot analysis; assay type: functional, cell-based
MDA-MB-468 [41] = assay: Induction of cell cycle arrest in human MDA-MB-468 cells assessed as accumulation of cells at S phase at 20 uM measured for 48 hrs by PI staining based flow cytometry analysis (reference value: 4.39%); assay type: functional
MCF-10A [42] = assay: Effect on gammaH2AX expression in human MCF-10A cells at 20 uM measured for 48 hrs by immunoblot analysis; assay type: functional, cell-based
[43] = biological target: MAP kinase p38 (Homo sapiens) (UniProt O15264+Q15759+Q16539+P53778); assay: Inhibition of P38 phosphorylation in human MDA-MB-468 cells upto 20 uM; assay type: cell-based
BT-474 [44] = assay: Effect on P53 expression in human BT-474 cells at 20 uM measured for 48 hrs by immunoblot analysis; assay type: functional, cell-based

With O=C1Nc2ccccc2N/C1=C\C(=O)c1cccc(OCc2ccccc2)c1 the Activity (JIMT-1 [1]) was “inactive”, the Activity (MDA-MB-468 [2]) was “inactive” and the Activity (MDA-MB-468 [3]) was 13.3%. The Activity (MCF7 [4]) was “inactive”, the Activity (MCF-10A [5]) was “inactive” and the Activity (MCF7 [6]) was “inactive”. The Activity (JIMT-1 [7]) was “inactive”, the IC50 (SK-BR-3 [8]) was over 60 µM and the IC50 (MDA-MB-468 [9]) was 6.5 µM. For the same molecule, the Activity (JIMT-1 [10]) was “inactive”, the “Ratio IC50” value (MDA-MB-468 [11]) was 2 and the “Ratio IC50” value [12] was 4.4. For the same molecule, the Activity (MDA-MB-468 [13]) was “inactive”, the Activity (SK-BR-3 [14]) was “inactive” and the IC50 (MCF7 [15]) was 41.6 µM. The Activity (MCF7 [16]) was “inactive”, the Activity (MCF-10A [17]) was “inactive” and the Activity (BT-474 [18]) was “inactive”. The Activity (MDA-MB-468 [19]) was “Dose-Dependent Effect”, the Activity (MDA-MB-468 [20]) was 69.1% and the Activity (BT-474 [21]) was “inactive”. The Activity (SK-BR-3 [22]) was “inactive”, the Activity (MDA-MB-468 [23]) was “Dose-Dependent Effect” and the Activity (MCF7 [24]) was “inactive”. It also gave an Activity (MDA-MB-468 [25]) of 58.7%, an IC50 (JIMT-1 [26]) of 44.9 µM and an Activity (MDA-MB-468 [27]) of 17.4%. The Activity (MDA-MB-468 [28]) was 9.32%, the Activity (MDA-MB-468 [29]) was 22.8% and the Activity (MCF-10A [30]) was “inactive”. It also gave an IC50 (BT-474 [31]) of 28.7 µM, an Activity (MDA-MB-468 [32]) of 19.1% and an inhibition at 10 µM (MDA-MB-468 [33]) of 50%. For the same molecule, the Activity (MDA-MB-468 [34]) was 75%, the IC50 [35] was 47.5 µM and the Activity (BT-474 [36]) was “inactive”. The Activity (SK-BR-3 [37]) was “inactive”, the Activity (JIMT-1 [38]) was “inactive” and the Activity (MDA-MB-468 [39]) was “Active”. The Activity (SK-BR-3 [40]) was “inactive”, the Activity (MDA-MB-468 [41]) was 20% and the Activity (MCF-10A [42]) was “inactive”. The inhibition [43] was “Active” and the Activity (BT-474 [44]) was “inactive”.

In the case of O=C1Nc2ccccc2N/C1=C\C(=O)c1ccccc1, the IC50 (SK-BR-3 [8]) is reported as over 10 µM, the IC50 (MDA-MB-468 [9]) is reported as 7.73 µM and the IC50 (MCF7 [15]) is reported as over 10 µM. The IC50 (JIMT-1 [26]) was over 10 µM, the IC50 (BT-474 [31]) was over 10 µM and the inhibition at 10 µM (MDA-MB-468 [33]) was 50%. The IC50 [35] was over 10 µM.
